In publication PMC7853427 (Journal of the American Chemical Society, 2021):

Target: E. coli PheRS (Escherichia coli, UniProt P08312)
Assay: inhibition of Phe activation by purified PheRS
Format: biochemical

E. coli PheRS, sequence (P08312 whole entry): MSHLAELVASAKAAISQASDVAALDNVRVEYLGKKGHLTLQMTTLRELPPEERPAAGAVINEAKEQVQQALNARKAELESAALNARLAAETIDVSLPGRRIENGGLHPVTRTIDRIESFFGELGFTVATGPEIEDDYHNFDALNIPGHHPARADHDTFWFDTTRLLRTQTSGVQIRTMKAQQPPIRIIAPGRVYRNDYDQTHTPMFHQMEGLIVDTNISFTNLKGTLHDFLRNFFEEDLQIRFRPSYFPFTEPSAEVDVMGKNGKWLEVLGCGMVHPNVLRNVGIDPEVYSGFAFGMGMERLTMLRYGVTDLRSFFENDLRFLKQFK
E. coli PheRS, sequence (P07395 whole entry partner): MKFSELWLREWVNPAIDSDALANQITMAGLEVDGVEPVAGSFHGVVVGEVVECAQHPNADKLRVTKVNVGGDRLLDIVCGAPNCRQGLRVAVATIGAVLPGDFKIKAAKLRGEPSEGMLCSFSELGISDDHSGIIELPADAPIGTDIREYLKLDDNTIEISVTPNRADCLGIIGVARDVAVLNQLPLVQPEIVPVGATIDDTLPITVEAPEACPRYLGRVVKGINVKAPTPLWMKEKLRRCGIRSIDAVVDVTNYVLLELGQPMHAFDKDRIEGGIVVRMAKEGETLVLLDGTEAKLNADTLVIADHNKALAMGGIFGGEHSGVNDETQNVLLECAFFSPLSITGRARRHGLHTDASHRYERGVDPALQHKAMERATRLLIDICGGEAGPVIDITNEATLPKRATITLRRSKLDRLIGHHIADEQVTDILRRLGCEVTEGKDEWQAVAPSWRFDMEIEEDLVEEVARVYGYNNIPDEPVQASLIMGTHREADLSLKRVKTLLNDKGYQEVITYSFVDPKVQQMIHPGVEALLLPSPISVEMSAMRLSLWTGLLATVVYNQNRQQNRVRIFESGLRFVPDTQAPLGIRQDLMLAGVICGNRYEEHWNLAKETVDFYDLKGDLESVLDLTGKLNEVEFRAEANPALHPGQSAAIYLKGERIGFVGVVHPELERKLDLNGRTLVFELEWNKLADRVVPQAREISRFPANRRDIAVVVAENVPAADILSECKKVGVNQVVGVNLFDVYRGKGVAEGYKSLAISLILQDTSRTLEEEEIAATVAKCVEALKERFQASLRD

Compound: CC(Cc1ccccc1)NCc1ccccc1 (stereo not shown) [compound 20, norbenzamphetamine]
- IC50: 169 µM
